Data reported in paper PMC12583704 (Signal Transduction and Targeted Therapy, 2025).

Assay: Phase 1 study NCT03594422: adverse events graded by NCI CTCAE v4.03
Format: in vivo, human
Experimental: Part 1 was a dose-escalation study to determine the recommended phase 2 dose (RP2D) in solid tumors. […] The initial design was a 3 + 3 dose escalation from 20 mg, but the protocol was amended to randomly enroll and assign patients to starting doses of 30, 40, and 50 mg on the basis of safety data acquired in the CML trial.[20] […] An interactive web response system was used for randomization. Part 2 was a nonrandomized study focusing on patients with SDH-deficient GISTs. […] On the basis of preliminary data from adult patients, adolescent patients with advanced wild-type GISTs were also included in Part 2. The dosage for adolescents was adjusted according to their body weights.
AEs were evaluated at each follow-up visit: on Days 1, 8, 15, and 22 during Cycles 1 and 2; and on Days 1 and 15 in Cycle 3 and all subsequent cycles, up to 30 days after the final dose. All AEs were graded according to the National Cancer Institute Common Terminology Criteria for Adverse Events v4.03. Clinical laboratory investigations for routine blood examinations and serum chemistry parameters were performed during every cycle (on Day 1), during Cycles 1 and 2 (on Days 8, 15, and 22), and 30 days after the last dose of treatment. Urinalysis, coagulation, cardiac troponin I/T, lipase, amylase, and electrocardiographic evaluations were conducted at baseline; during Cycles 1 and 2 (on Days 1 and 15); during Cycles 3, 5, 7, and 9; every three cycles after Cycle 9 (on Day 1); and 14 days after the last dose of treatment. All patients underwent tumor imaging for response assessment via computed tomography or magnetic resonance imaging at screening and every two cycles (8 weeks) until progression or discontinuation. Target and nontarget lesions were assessed per the Response Evaluation Criteria in Solid Tumors version 1.1 (RECIST v1.1).

Cc1ccc(C(=O)Nc2ccc(CN3CCN(C)CC3)c(C(F)(F)F)c2)cc1C#Cc1cnc2[nH]ncc2c1 [Olverembatinib, 3-[(1H-pyrazolo[3,4-b]pyridin-5-yl)ethynyl]-4-methyl-N-{4-[(4-methylpiperazin-1-yl)methyl]-3-(trifluoromethyl)phenyl]benzamide]
4 (25.0) n (%): TEAE: C-reactive protein increased (50 mg (n = 16), Any grade) | TEAE: Melanocytic nevus (50 mg (n = 16), Any grade) | TRAE: Anemia (50 mg (n = 16), Any grade) | TRAE: Melanocytic nevus (50 mg (n = 16), Any grade) | TRAE: Pyrexia (50 mg (n = 16), Any grade)
3 (18.8) n (%): TEAE: Abdominal pain (50 mg (n = 16), Any grade) | TRAE: Hypoalbuminemia (50 mg (n = 16), Any grade)
9 (56.3) n (%): TEAEs (50 mg (n = 16), Grade 3-5)
1 (3.1) n (%): TEAE: Fatigue (40 mg (n = 32), Grade 3-5) | TRAE: Fatigue (40 mg (n = 32), Grade 3-5)
10 (62.5) n (%): TEAE: Aspartate aminotransferase increased (50 mg (n = 16), Any grade)
0 n (%): TEAE: Constipation (40 mg (n = 32), Grade 3-5) | TEAE: Hyperuricemia (40 mg (n = 32), Grade 3-5) | TEAE: Hypoalbuminemia (40 mg (n = 32), Grade 3-5) | TEAE: Leukocyte count increased (40 mg (n = 32), Grade 3-5) | TEAE: Melanocytic nevus (40 mg (n = 32), Grade 3-5) | TEAE: Neutrophil count increased (40 mg (n = 32), Grade 3-5) | TEAE: Pyrexia (40 mg (n = 32), Grade 3-5) | TRAE: ALT increased (40 mg (n = 32), Grade 3-5) | TRAE: AST increased (40 mg (n = 32), Grade 3-5) | TRAE: Anemia (40 mg (n = 32), Grade 3-5) | TRAE: Blood creatinine increased (40 mg (n = 32), Grade 3-5) | TRAE: Constipation (40 mg (n = 32), Grade 3-5) | TRAE: Hypoalbuminemia (40 mg (n = 32), Grade 3-5) | TRAE: Leukocyte count increased (40 mg (n = 32), Grade 3-5) | TRAE: Melanocytic nevus (40 mg (n = 32), Grade 3-5) | TRAE: Neutrophil count increased (40 mg (n = 32), Grade 3-5) | TRAE: Platelet count increased (40 mg (n = 32), Grade 3-5) | TRAE: Pyrexia (40 mg (n = 32), Grade 3-5) | TEAE: Abdominal pain (50 mg (n = 16), Grade 3-5) | TEAE: C-reactive protein increased (50 mg (n = 16), Grade 3-5) | TEAE: Constipation (50 mg (n = 16), Grade 3-5) | TEAE: Fatigue (50 mg (n = 16), Grade 3-5) | TEAE: Hyperuricemia (50 mg (n = 16), Grade 3-5) | TEAE: Hypoalbuminemia (50 mg (n = 16), Grade 3-5) | TEAE: Leukocyte count increased (50 mg (n = 16), Grade 3-5) | TEAE: Melanocytic nevus (50 mg (n = 16), Grade 3-5) | TEAE: Neutrophil count increased (50 mg (n = 16), Grade 3-5) | TEAE: Pyrexia (50 mg (n = 16), Grade 3-5) | TRAE: Anemia (50 mg (n = 16), Grade 3-5) | TRAE: Blood creatinine increased (50 mg (n = 16), Grade 3-5) | TRAE: Constipation (50 mg (n = 16), Grade 3-5) | TRAE: Fatigue (50 mg (n = 16), Grade 3-5)
7 (43.8) n (%): TEAE: Constipation (50 mg (n = 16), Any grade)
8 (50.0) n (%): TEAE: Anemia (50 mg (n = 16), Any grade) | TEAE: Leukocyte count increased (50 mg (n = 16), Any grade) | TRAE: Leukocyte count increased (50 mg (n = 16), Any grade)
1 (6.3) n (%): TRAE: Blood creatinine increased (50 mg (n = 16), Any grade) | TEAE: Anemia (50 mg (n = 16), Grade 3-5) | TRAE: ALT increased (50 mg (n = 16), Grade 3-5) | TRAE: AST increased (50 mg (n = 16), Grade 3-5)
2 (12.5) n (%): TRAE: Platelet count increased (50 mg (n = 16), Any grade) | TEAE: Alanine aminotransferase increased (50 mg (n = 16), Grade 3-5) | TEAE: Aspartate aminotransferase increased (50 mg (n = 16), Grade 3-5)
12 (37.5) n (%): TEAEs (40 mg (n = 32), Grade 3-5)
16 (100.0) n (%): TEAEs (50 mg (n = 16), Any grade)
5 (31.3) n (%): TEAE: Fatigue (50 mg (n = 16), Any grade) | TEAE: Hyperuricemia (50 mg (n = 16), Any grade) | TEAE: Hypoalbuminemia (50 mg (n = 16), Any grade) | TRAE: ALT increased (50 mg (n = 16), Any grade) | TRAE: Constipation (50 mg (n = 16), Any grade) | TRAE: Fatigue (50 mg (n = 16), Any grade)
6 (37.5) n (%): TEAE: Alanine aminotransferase increased (50 mg (n = 16), Any grade) | TEAE: Neutrophil count increased (50 mg (n = 16), Any grade) | TEAE: Pyrexia (50 mg (n = 16), Any grade) | TRAE: AST increased (50 mg (n = 16), Any grade) | TRAE: Neutrophil count increased (50 mg (n = 16), Any grade)
